Where two headings read alike, the source gives them in different places.
What was measured:
Avi-tagged FL MALT-1 = Avi-tagged FL MALT-1 (Homo sapiens (Human), UniProt Q9UDY8); test: MALT-1 Fluorogenic Peptide Cleavage Assay (MALT1 inhibition assay); assay type: biochemical; settings: Ac-LRSR-AMC peptide substrate, 30 min pre-incubation, 90 min reaction at room temperature
Summary of the method: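 Full-length Avi-tagged human MALT-1 (40 nM working stock) pre-incubated 30 min at RT with compound in 25 mM HEPES pH 6.89, 660 mM sodium citrate, 1 mM TCEP, […], 0.05% CHAPS, 2% DMSO. Ac-LRSR-AMC added at Km (50 μM working stock) or 10×Km (280 μM working stock); 90 min at RT, AMC fluorescence (ex 342/em 441 nm), IC50 from % inhibition curves.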

[1] = system: NF-kB reporter in Jurkat cells; test: NF-kB reporter assay in Jurkat cells stimulated with aCD3/aCD28/PMA; assay type: cell-based; settings: read-out: NF-kB Reporter Assay IC50
Summary of the method: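 Jurkat cells (25,000/well, serum-free RPMI) were pre-incubated 1 h at 37° C with serially diluted compound, then stimulated 4 h with aCD3/aCD28/PMA at final […]. NF-kB reporter activity was read by One-Glo luminescence; IC50 values reported.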

[2] = Homo sapiens, Jurkat cells, 1 hr compound pre-incubation, aCD3/aCD28/PMA stimulation 4 hr, One-Glo readout

Avi-tagged FL MALT-1, sequence (Q9UDY8 whole entry): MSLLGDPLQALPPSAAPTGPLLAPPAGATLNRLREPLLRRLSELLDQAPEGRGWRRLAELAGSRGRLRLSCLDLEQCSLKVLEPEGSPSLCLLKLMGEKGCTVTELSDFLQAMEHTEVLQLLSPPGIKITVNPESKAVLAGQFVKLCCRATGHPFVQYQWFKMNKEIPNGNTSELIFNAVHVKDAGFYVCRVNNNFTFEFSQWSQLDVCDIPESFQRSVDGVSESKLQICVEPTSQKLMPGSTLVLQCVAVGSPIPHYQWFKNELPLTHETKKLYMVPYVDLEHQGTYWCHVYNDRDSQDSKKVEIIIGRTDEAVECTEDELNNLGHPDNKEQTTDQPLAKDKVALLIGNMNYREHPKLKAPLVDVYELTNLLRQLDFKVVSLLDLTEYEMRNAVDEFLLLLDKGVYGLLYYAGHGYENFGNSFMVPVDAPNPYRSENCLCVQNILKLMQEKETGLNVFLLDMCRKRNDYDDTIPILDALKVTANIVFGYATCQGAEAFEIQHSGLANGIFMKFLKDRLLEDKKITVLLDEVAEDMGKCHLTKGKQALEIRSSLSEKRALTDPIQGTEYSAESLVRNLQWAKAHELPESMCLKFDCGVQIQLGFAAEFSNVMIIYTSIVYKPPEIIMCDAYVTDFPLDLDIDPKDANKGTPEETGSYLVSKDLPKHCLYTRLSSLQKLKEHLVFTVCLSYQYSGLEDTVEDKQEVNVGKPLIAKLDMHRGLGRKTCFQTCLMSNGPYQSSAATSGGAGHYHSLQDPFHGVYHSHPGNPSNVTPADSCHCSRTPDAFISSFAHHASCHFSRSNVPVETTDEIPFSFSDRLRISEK

IC50 (Avi-tagged FL MALT-1) [nM]	IC50 [1, 2] [nM]	IC50 ([1]; Jurkat cells, 1 hr compound pre-incubation, aCD3/aCD28/PMA stimulation 4 hr, One-Glo readout) [nM]	Compound	IC50 ([1]; Homo sapiens, Jurkat) [nM]
> 2500	< 400		COC1(c2ccnc(-n3cc(S(=O)(=O)Nc4cccc5[nH]nc(C)c45)cn3)c2)COC1 [Compound I-244, 1-(4-(3-methoxyoxetan-3-yl)pyridin-2-yl)-N-(3-methyl-1H-indazol-4-yl)-1H-pyrazole-4-sulfonamide]	
> 2500		< 400	Cc1n[nH]c2cccc(NS(=O)(=O)c3cnn(-c4cc(C(C)(C)O)ccn4)c3)c12 [Compound I-245]	
> 2500	< 400		Cc1n[nH]c2cccc(NS(=O)(=O)c3cnn(-c4cc(C5(O)CCCC5)ccn4)c3)c12 [Compound I-246, 1-[4-(1-hydroxycyclopentyl)pyridin-2-yl]-N-(3-methyl-1H-indazol-4-yl)pyrazole-4-sulfonamide]	
> 2500	< 400		Cn1ncc2cccc(NS(=O)(=O)c3cnn(-c4cc(C5(O)CCCC5)ccn4)c3)c21 [Compound I-247, 1-[4-(1-hydroxycyclopentyl)pyridin-2-yl]-N-(1-methylindazol-7-yl) pyrazole-4-sulfonamide]	
> 2500	< 400		Cn1ncc2cccc(NS(=O)(=O)c3cnn(-c4cc(N5CCCC5)ccn4)c3)c21 [Compound I-249, N-(1-methyl-1H-indazol-7-yl)-1-(4-(pyrrolidin-1-yl)pyridin-2-yl)-1H-pyrazole-4-sulfonamide]	
> 2500	< 400		Cn1ncc2cccc(NS(=O)(=O)c3cnn(-c4cc(N5CCCCC5)ccn4)c3)c21 [Compound I-250, N-(1-methyl-1H-indazol-7-yl)-1-(4-(piperidin-1-yl)pyridin-2-yl)-1H-pyrazole-4-sulfonamide]	
> 2500	< 400		CN1CC(F)(c2ccnc(-n3cc(S(=O)(=O)Nc4cccc5cnn(C)c45)cn3)c2)C1 [Compound I-251, 1-(4-(3-fluoro-1-methylazetidin-3-yl)pyridin-2-yl)-N-(1-methyl-1H-indazol-7-yl)-1H-pyrazole-4-sulfonamide]	
> 2500	< 400		COC1(c2ccnc(-n3cc(S(=O)(=O)Nc4cccc5cnn(C)c45)cn3)c2)CN(C)C1 [Compound I-252]	
> 2500	400 to 1000		CC(=O)N1CC(F)(c2ccnc(-n3cc(S(=O)(=O)Nc4cccc5cnn(C)c45)cn3)c2)C1 [Compound I-253, 1-(4-(1-acetyl-3-fluoroazetidin-3-yl)pyridin-2-yl)-N-(1-methyl-1H-indazol-7-yl)-1H-pyrazole-4-sulfonamide]	
> 2500	1000 to 2500		COC1(c2ccnc(-n3cc(S(=O)(=O)Nc4cccc5cnn(C)c45)cn3)c2)CN(C(C)=O)C1 [Compound I-254]	
> 2500	< 400		Cc1n[nH]c2cccc(NS(=O)(=O)c3cnn(-c4cc(C5(O)CCC5)ccn4)c3)c12 [Compound I-255, 1-[4-(1-hydroxycyclobutyl)pyridin-2-yl]-N-(3-methyl-1H-indazol-4-yl)pyrazole-4-sulfonamide]	
> 2500	< 400		Cn1ncc2cccc(NS(=O)(=O)c3cnn(-c4cc(C5(O)CCCCC5)ccn4)c3)c21 [Compound I-256, 1-[4-(1-hydroxycyclohexyl)pyridin-2-yl]-N-(1-methylindazol-7-yl)pyrazole-4-sulfonamide]	
> 2500	1000 to 2500		COCC(O)(COC)c1ccnc(-n2cc(S(=O)(=O)Nc3cccc4cnn(C)c34)cn2)c1 [Compound I-257, 1-(4-(2-Hydroxy-1,3-Dimethoxypropan-2-yl)Pyridin-2-yl)-N-(1-Methyl-1H-Indazol-7-yl)-1H-Pyrazole-4-Sulfonamide]	
≤ 400	< 400		COc1ccc2cnn(C)c2c1NS(=O)(=O)c1cnn(-c2cc(C(C)(C)OC)ccn2)c1 [Compound I-258, N-(6-methoxy-1-methyl-1H-indazol-7-yl)-1-(4-(2-methoxypropan-2-yl)pyridin-2-yl)-1H-pyrazole-4-sulfonamide]	
> 2500	1000 to 2500		COCC(COC)(OC)c1ccnc(-n2cc(S(=O)(=O)Nc3cccc4cnn(C)c34)cn2)c1 [Compound I-259, N-(1-methyl-1H-indazol-7-yl)-1-(4-(1,2,3-trimethoxypropan-2-yl)pyridin-2-yl)-1H-pyrazole-4-sulfonamide]	
400 to 1000	400 to 1000		COc1ncc2cnn(C)c2c1NS(=O)(=O)c1cnn(-c2cc(C(C)(C)O)ccn2)c1 [Compound I-260, 1-(4-(2-hydroxypropan-2-yl)pyridin-2-yl)-N-(6-methoxy-1-methyl-1H-pyrazolo[4,3-c]pyridin-7-yl)-1H-pyrazole-4-sulfonamide]	
≤ 400	< 400		COc1ncc2cnn(C)c2c1NS(=O)(=O)c1cnn(-c2cc(C(C)(C)OC)ccn2)c1 [Compound I-261, N-(6-Methoxy-1-Methyl-1H-Pyrazolo[4,3-C]Pyridin-7-yl)-1-(4-(2-Methoxypropan-2-yl)Pyridin-2-yl)-1H-Pyrazole-4-Sulfonamide]	

IC50 (Avi-tagged FL MALT-1) [nM]	IC50 [1, 2] [nM]	IC50 ([1]; Jurkat cells, 1 hr compound pre-incubation, aCD3/aCD28/PMA stimulation 4 hr, One-Glo readout) [nM]	Compound	IC50 ([1]; Homo sapiens, Jurkat) [nM]
400 to 1000	< 400		COc1ccc2cnn(C)c2c1NS(=O)(=O)c1cnn(-c2cc(C3COC3)ccn2)c1 [Compound I-262, N-(6-methoxy-1-methyl-1H-indazol-7-yl)-1-(4-(oxetan-3-yl)pyridin-2-yl)-1H-pyrazole-4-sulfonamide]	
400 to 1000	< 400		COc1ccc2cnn(C)c2c1NS(=O)(=O)c1cnn(-c2cc(C3CCO3)ccn2)c1 (centres unmarked) [Compound I-263, N-(6-methoxy-1-methyl-1H-indazol-7-yl)-1-(4-(oxetan-2-yl)pyridin-2-yl)-1H-pyrazole-4-sulfonamide]	
> 2500	< 400		Cn1ncc2cccc(NS(=O)(=O)c3cnn(-c4cc(C5COC5)ccn4)c3)c21 [Compound I-264, N-(1-methylindazol-7-yl)-1-[4-(oxetan-3-yl)pyridin-2-yl]pyrazole-4-sulfonamide]	
> 2500	< 400		Cn1ncc2cccc(NS(=O)(=O)c3cnn(-c4cc(C5CCO5)ccn4)c3)c21 (centres unmarked) [Compound I-265, N-(1-methylindazol-7-yl)-1-[4-(oxetan-2-yl)pyridin-2-yl]pyrazole-4-sulfonamide]	
≤ 400	< 400		COc1ccc2cnn(C)c2c1NS(=O)(=O)c1cnn(-c2cc(C(F)(F)F)n(C)n2)c1 [Compound I-266, N-(6-methoxy-1-methyl-1H-indazol-7-yl)-1′-methyl-5′-(trifluoromethyl)-1′H-[1,3′-bipyrazole]-4-sulfonamide]	
> 2500	< 400		COC[C@](C)(O)c1ccnc(-n2cc(S(=O)(=O)Nc3cccc4cnn(C)c34)cn2)c1 [Compound I-267]	
> 2500	< 400		COCC(F)(F)c1ccnc(-n2cc(S(=O)(=O)Nc3cccc4cnn(C)c34)cn2)c1 [Compound I-268]	
> 2500	< 400		C[C@@H](O)c1ccnc(-n2cc(S(=O)(=O)Nc3cccc4cnn(C)c34)cn2)c1 [Compound I-269]	
> 2500	< 400		C[C@H](O)c1ccnc(-n2cc(S(=O)(=O)Nc3cccc4cnn(C)c34)cn2)c1 [Compound I-270]	
> 2500	< 400		Cn1ncc2cccc(NS(=O)(=O)c3cnn(-c4cc([C@]5(O)C[C@@H](C)C5)ccn4)c3)c21 [Compound I-271, 1-(4-((1s,3s)-1-hydroxy-3-methylcyclobutyl)pyridin-2-yl)-N-(1-methyl-1H-indazol-7-yl)-1H-pyrazole-4-sulfonamide]	
≤ 400	< 400		CCc1ccc2cnn(C)c2c1NS(=O)(=O)c1cnn(-c2cc(C(C)(C)O)ccn2)c1 [Compound I-274, N-(6-ethyl-1-methyl-1H-indazol-7-yl)-1-(4-(2-hydroxypropan-2-yl)pyridin-2-yl)-1H-pyrazole-4-sulfonamide]	
> 2500	1000 to 2500		COC[C@@](C)(O)c1ccnc(-n2cc(S(=O)(=O)Nc3cccc4cnn(C)c34)cn2)c1 [Compound I-275]	
> 2500	< 400		CCC(O)(CC)c1ccnc(-n2cc(S(=O)(=O)Nc3cccc4cnn(C)c34)cn2)c1 [Compound I-276]	
> 2500	< 400		CC[C@@H](O)c1ccnc(-n2cc(S(=O)(=O)Nc3cccc4cnn(C)c34)cn2)c1 [Compound I-278, (R)-1-(4-(1-hydroxypropyl)pyridin-2-yl)-N-(1-methyl-1H-indazol-7-yl)-1H-pyrazole-4-sulfonamide]	
400 to 1000	400 to 1000		CCC(O)(CC)c1ccnc(-n2cc(S(=O)(=O)Nc3c(OC)ccc4cnn(C)c34)cn2)c1 [Compound I-279, 1-[4-(3-hydroxypentan-3-yl)pyridin-2-yl]-N-(6-methoxy-1-methylindazol-7-yl)pyrazole-4-sulfonamide]	
> 2500	< 400		Cn1ncc2cccc(NS(=O)(=O)c3cnn(-c4cc(N5CCOC5=O)ccn4)c3)c21 [Compound I-282, N-(1-methyl-1H-indazol-7-yl)-1-(4-(2-oxooxazolidin-3-yl)pyridin-2-yl)-1H-pyrazole-4-sulfonamide]	

Compound	IC50 (Avi-tagged FL MALT-1) [nM]	IC50 [1, 2] [nM]	IC50 ([1]; Jurkat cells, 1 hr compound pre-incubation, aCD3/aCD28/PMA stimulation 4 hr, One-Glo readout) [nM]	IC50 ([1]; Homo sapiens, Jurkat) [nM]
Cn1ncc2cccc(NS(=O)(=O)c3cnn(-c4cc(N5CCC5)ccn4)c3)c21 [Compound I-248, 1-(4-(azetidin-1-yl)pyridin-2-yl)-N-(1-methyl-1H-indazol-7-yl)-1H-pyrazole-4-sulfonamide]	> 2500			< 400

— patent publication US20240150321A1, “PYRAZOLYLSULFONAMIDE COMPOUNDS AND THEIR USE IN THERAPY” (HOTSPOT THERAPEUTICS, INC., priority 2022, published 2024)
